The results in this text go back to patent US12433903B2 (priority 2021, dated 2025).

For this assay, the system named is indomethacin induced intestinal injury. As to the kind of experiment: Indomethacin-induced Crohn's disease in rats. Type of assay: in vivo. Here is the method: The objective of this study was to determine the efficacy of Compound 1 and Compound 2 in a model of Crohn's disease (indomethacin induced intestinal injury) in rats.
The study design was identical for Compound 1 and Compound 2. On study day -3, rats were weighed and distributed into treatment groups based on body weight.
On study day 0, treatment was initiated and continue as indicated in the Study Design Tables below. Groups 2-6 received a subcutaneous injection of indomethacin (9 mg/kg, 1 ml/kg) in 5% sodium bicarbonate (Sterile Water). On study day 1, Groups 2-6 received a second subcutaneous injection of indomethacin (8 mg/kg, 1 ml/kg) in 5% sodium bicarbonate (Sterile Water). Live phase sample & data collection specifics are outlined below. On study day 4, animals will be euthanized, a section of the small intestine will be removed and weighed. Further necropsy sample and data collection is specified below. Overall efficacy of test articles will be based on body weight, small intestine weight (10 cm), small intestine gross score, and histopathology
At necropsy, the small intestines were evaluated visually and given a gross score according to the following criteria: 0=Normal. 0.5=Very Minimal thickening, multifocal in area at risk. 1=Minimal thickening, fairly diffuse in area at risk. 2=Mild to moderate small intestinal/mesenteric thickening throughout area at risk. 3=Moderate thickening with 1 or more definite adhesions that would be easy to separate. 4=Marked thickening with numerous hard to separate adhesions. 5=Severe intestinal lesion resulting in death.
Preserved 9-cm sections of small intestine were trimmed into 6 transverse sections collected at approximately equal intervals along the […] of the intestine, without bias toward lesion presence or absence. These trimmed sections were processed through graded alcohols and a clearing agent, infiltrated and embedded in paraffin, sectioned, and stained with hematoxylin and eosin (H&E).
Small intestine sections from all animals were examined microscopically by a board-certified veterinary pathologist, and observations were entered into a computer-assisted data retrieval system. Cross sections of small intestine were scored for inflammation and necrosis using the following criteria:
The area at risk for development of this lesion is generally approximately 30% of the total area of a cross section of small intestine where the mesentery attaches.
Inflammation is localized to the mesentery and intestinal area at risk for necrosis with slight extension on either side of it. […] In this case, inflammation is scored based on overall severity ranging from 0.5 (very minimal) to 5 (severe) without regard for the extent of necrosis. The mean score for necrosis and inflammation was calculated for each animal and these mean scores were then summed to arrive at a total score. Each section also has a measurement of total width of mucosal necrosis.

The mark [1] stands for this setting: Group 5 (Compound 1: 200 mg/kg PO).
[2] abbreviates: Groups 4 and 5 (Compound 1: 50 and 200 mg/kg PO).

On to `CCCCCc1cc(O)c(C/C=C(\C)CCC=C(C)C)c(OC)c1` [Compound 1, (E)-2-(3,7-dimethylocta-2,6-dien-1-yl)-3-methoxy-5-pentylphenol], for which the “small intestine gross score compared to vehicle” value (Group 4 (Compound 1: 50 mg/kg PO)) is listed as “trend in lower small intestine gross score”. Under setting [1], the “histopathology scores vs vehicle and dexamethasone” value was “significantly lower”; the “necrosis width vs vehicle and dexamethasone” value was “significantly lower”. In addition, under setting [2], the “Histopathology scores vs vehicle (Group 2) and positive control (Group 3)” value is “trended lower”; the “necrosis width vs vehicle (Group 2) and positive control (Group 3)” value is reported as “trended lower”. For the same compound, the “small intestine gross score compared to vehicle” value (Groups 5-6 (Compound 1: 200 and 800 mg/kg PO)) is recorded as “significant reductions in gross score”. In addition, the “small intestine weight compared to vehicle” value (all three treatment groups (Groups 4-6), PO days 0-3) was “significantly lower”. Moreover, the “body weight change from Study Day -3 (preventing weight loss)” value (all treatment groups (Groups 4-6), PO days 0-3, in comparison to dexamethasone (Compound 2: and vehicle)) was “all trended towards or had significant differences in preventing weight loss”.
